Experimental data: the NIST ThermoML archive (doi:10.1021/je060139a)
± gives the expanded uncertainty stated by the source.

Experiment: xn = mol fraction of the nth substance listed
Conditions: Wilhelmy plate method

CCC(=O)OCc1ccccc1 [benzyl propanoate] + CCO
surface tension liquid-gas [mN/m]
Conditions	288.15 K	298.18 K	308.15 K	318.15 K
x1 = 0.05	24 ± 0.4	23.2 ± 0.4	22.3 ± 0.4	21.34 ± 0.4
x1 = 0.1	24.8 ± 0.4	24 ± 0.4	23.1 ± 0.4	22.1 ± 0.4
x1 = 0.15	25.5 ± 0.4	24.64 ± 0.4	23.7 ± 0.4	22.7 ± 0.4
x1 = 0.2	26.13 ± 0.4	25.25 ± 0.4	24.3 ± 0.4	23.3 ± 0.4
x1 = 0.25	26.7 ± 0.4	25.78 ± 0.4	24.82 ± 0.4	23.8 ± 0.4
x1 = 0.3	27.23 ± 0.4	26.3 ± 0.4	25.32 ± 0.4	24.3 ± 0.4
x1 = 0.35	27.76 ± 0.4	26.8 ± 0.4	25.8 ± 0.4	24.78 ± 0.4
x1 = 0.4	28.3 ± 0.4	27.31 ± 0.4	26.3 ± 0.4	25.28 ± 0.4
x1 = 0.45	28.85 ± 0.4	27.84 ± 0.4	26.82 ± 0.4	25.78 ± 0.4
x1 = 0.5	29.4 ± 0.4	28.36 ± 0.4	27.33 ± 0.4	26.28 ± 0.4
x1 = 0.55	29.95 ± 0.4	28.89 ± 0.4	27.85 ± 0.4	26.78 ± 0.4
x1 = 0.6	30.5 ± 0.4	29.43 ± 0.4	28.37 ± 0.4	27.28 ± 0.4
x1 = 0.65	31.06 ± 0.41	29.97 ± 0.41	28.88 ± 0.4	27.78 ± 0.4
x1 = 0.7	31.62 ± 0.41	30.52 ± 0.41	29.4 ± 0.41	28.3 ± 0.41
x1 = 0.75	32.23 ± 0.41	31.1 ± 0.41	29.96 ± 0.41	28.83 ± 0.41
x1 = 0.8	32.88 ± 0.41	31.7 ± 0.41	30.55 ± 0.41	29.4 ± 0.41
x1 = 0.85	33.7 ± 0.41	32.5 ± 0.41	31.3 ± 0.41	30.1 ± 0.41
x1 = 0.9	34.5 ± 0.41	33.3 ± 0.41	32.1 ± 0.41	30.9 ± 0.41
x1 = 0.95	35.2 ± 0.41	34 ± 0.41	32.8 ± 0.41	31.6 ± 0.41
x1 = 1	36 ± 0.41	34.8 ± 0.41	33.6 ± 0.41	32.4 ± 0.41
